Patent US4247559A, “N-substituted maleimides in liquid concentrates” (Abbott Laboratories, priority 1979, dated 1981)

Key:
Type in all cases: cell-based
[1] = test system: A. niger and P. funiculosum; assay: antifungal test on agar plates, visual inspection of growth; set-up: unit not given here; details: agar plates, 10,000 units each, 30° C. for two weeks
Procedure: In a related test, the above biocide solutions are added to agar plates at various concentrations and the plates are then inoculated with 1 ml. of a broth containing 10,000 units each of A. niger and P. funiculosum. The plates are then incubated at 30° C. for two weeks, and growth of the fungi is visually inspected to establish the minimum inhibitory concentration (MIC).

[2] = test system: Aerobacter aerogenes, Pseudomonoas Sp., Bacillus subtilus and Bacillus megaterium; assay: antibacterial test in nutrient broth tubes, presence or absence of turbidity; set-up: unit not given here; details: 48 hours at 37° C., subcultured and incubated 24 hours longer, challenge 1×10^6 colony-forming units each
Procedure: (§1) The new compounds are dissolved in DMF at a concentration of 50 mg/ml. and diluted with water to the appropriate concentration to be added to a nutrient broth in test tubes. The challenge mixture contains 1×10^6 colony-forming units each of Aerobacter aerogenes, Pseudomonoas Sp., Bacillus subtilus and Bacillus megaterium. Following inoculation, the tubes are incubated 48 hours at 37° C., subcultured to fresh nutrient broth and incubated 24 hours longer. The results are recorded as presence or absence of turbidity, turbidity indicating growth of the inoculum due to inactivity of the biocide at the concentration used in the broth.

[3] = test system: most common industrial fungi and bacteria; assay: biocidal activity (summary statements on bacteria and fungi); details: conclusion from the table, in words
Procedure: as §1, with “broth. In a related test, the above biocide solutions are added to agar plates at various concentrations and the plates are then inoculated with 1 ml. of a broth containing 10,000 units each of A. niger and P. funiculosum. The plates are then incubated at 30° C. for two weeks, and growth of the fungi is visually inspected to establish the minimum inhibitory concentration (MIC).” for “broth.”

Row | SMILES | Antifungal MIC [1] | Antibacterial MIC [2] | biocidal activity [3]
1 | O=C1C=CC(=O)N1c1ccc(S(=O)(=O)CI)cc1 [R= p-CH2 I] | 100 |  | 
2 | O=C1C=CC(=O)N1c1ccc(S(=O)(=O)C(Cl)Cl)cc1 [R= p-CHCl2, N-[p-(dichloromethylsulfonyl)phenyl]maleimide] | 1000 | 1000 | 
3 | O=C1C=CC(=O)N1c1ccc(S(=O)(=O)CCl)cc1 [R=p-CH2 Cl, N-[p-(chloromethylsulfonyl)phenyl]maleimide] | 1000 | 1000 | 
4 | O=C1C=CC(=O)N1c1ccc(S(=O)(=O)C(I)I)cc1 [R= p-CHI2, N-[p-(diiodomethylsulfonyl)phenyl]maleimide] | 1000 | 1000 | 
5 | O=C1C=CC(=O)N1c1ccc(S(=O)(=O)C(Cl)(Cl)Cl)cc1 [R= CCL3, reference compound] | inactive | inactive | ineffective
